The source of these data is patent publication US20250101026A1, “Functionalized Allopurinol Derivatives for Treatment of Alzheimer’s Disease” (BOARD OF REGENTS OF THE UNIVERSITY OF NEBRASKA, priority 2022, published 2025).

One assay deals with T1, ABAD (Homo sapiens, UniProt Q99714).
T1 sequence (Q99714 1-261): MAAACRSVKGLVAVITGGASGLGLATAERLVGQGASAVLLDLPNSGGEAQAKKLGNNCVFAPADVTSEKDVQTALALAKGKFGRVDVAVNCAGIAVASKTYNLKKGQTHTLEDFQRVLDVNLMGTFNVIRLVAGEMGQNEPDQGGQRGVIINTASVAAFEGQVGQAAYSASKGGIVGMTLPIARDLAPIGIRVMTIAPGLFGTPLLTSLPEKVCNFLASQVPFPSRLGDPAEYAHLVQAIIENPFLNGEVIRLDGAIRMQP
The note with it: at 10 μM concentration; cited from earlier work.

Assay [1] relates to SH-SY5Y cells. The experiment in a line: Mitochondrial Stress Test in Aβ-treated SH-SY5Y cells (extracellular flux analyzer). Format: cell-based, human. Here is the method: Mitochondrial Stress Test. […] After 48 hours, media was replaced with assay medium consisting of XF Base Medium supplemented with 10 mM glucose, 10 mM pyruvic acid, and 1 mM L-glutamine. Subsequently, the analysis of mitochondrial oxygen consumption rate (OCR) was performed in a flux analyzer. The OCR values were obtained both during baseline (prior to addition of any Mito Stress Test substances), and after the addition of […], 2 μM FCCP and 0.5 μM rotenone+0.5 μM antimycin A, respectively. Prior to analysis, data were corrected by withdrawing non-mitochondrial respiration (measured after the injection of rotenone and antimycin A) from all measured OCR values. After the experiment, cells were lysed using RIPA buffer and protease inhibitor cocktail, then proteins were quantified via BCA assay. Results were normalized to protein concentration of each well to its OCR value.

For assay [2], the system named is SH-SY5Y cells. Nature of the assay: Aβ-induced toxicity in SH-SY5Y cells, MTS assay. Format: cell-based, human. The note with it: 10 μM, pretreated 24 hrs, then 25 μM Aβ 48 hrs. The procedure: Cell Culture. The cell line SH-SY5Y was cultured in DMEM/F12 media supplemented with 10% fetal bovine serum, 1% penicillin-streptomycin and maintained as monolayer cultures in a humidified atmosphere containing 5% CO2 at 37° C.^42 All cell lines were authenticated via short tandem repeat analysis and tested for mycoplasma using the a commercial mycoplasma detection kit as per the manufacturer's instructions, showing no contamination. Where indicated, cells were also cultured in DMEM/low glucose media. All compounds were diluted to 20 mM solution in DMSO and were serially diluted in cell culture media for cell treatments to a final concentration range of 0.01 to 100 μM, maintaining the final DMSO concentration at less than 1%. Positive control compound HupA was serially diluted in a similar fashion as the synthesized compounds.
Amyloid Preparation. The peptide Aβ1-42, referred to as “Aβ”, was obtained from a commercial source. The oligomers of Aβ were prepared using an established method,^43 Aβ peptide was resuspended in 0.5 mM NaOH at a concentration of […] and stored at −80° C. For use in cell cultures, the stock solution was incubated at 37° C. for 5-7 days. Before use, the peptide was diluted to 25 μM in DMEM/low glucose media.
Cell Viability Assays. The SH-SY5Y cells were plated at a density of 50,000 cells/well in 96-well plates and allowed to adapt overnight in a humidified atmosphere containing 5% CO2 at 37° C. The cells were pretreated (24 hours) with the test compound and exchanged to a serum-free DMEM/low glucose media, prior to incubation with 25 μM of Aβ. Cell viability was measured after 48 hours using commercial MTS assay or lactate dehydrogenase (LDH) cytotoxicity assay.
Employing human neuroblastoma SH-SY5Y ‘neuron-like’ cells, known to express ABAD,^20 experimental conditions are described herein that result in reproducible loss of 65% cell viability upon treatment with 25 μM Aβ after 48-hour incubation (FIG. 4A). Compound 1 (AG18051) and its analog 14b were screened for toxic effects in the SH-SY5Y cell lines.
HupA at 10 μM concentration provided 74% protection from Aβ-induced toxicity. […] Again, synthesized compound 14b at 1 μM, afforded greater protection than HupA at 10 μM concentration.
A general note: Tetrazolium assays rely on reduction of a dye to a coloured formazan, in cell work by metabolically active cells.

As for `C/C=C1\[C@H]2C=C(C)C[C@]1(N)c1ccc(=O)[nH]c1C2` [Huperzine A], the ABAD inhibition activity result on ABAD is recorded as “possess ABAD inhibition activity”. Also, in the assay with SH-SY5Y cells [1] (10 μM pretreatment 24 hrs, then 25 μM Aβ 48 hrs), the “basal respiration: restored respiration levels” value is 46%. In addition, the “proton leak, ATP production and maximal respiration: restoration of mitochondrial function lost by Aβ” value in the assay with SH-SY5Y cells [1] (10 μM pretreatment, then 25 μM Aβ) was “trend to restore”. In addition, the “protection from Aβ-induced toxicity (MTS assay)” value in the assay with SH-SY5Y cells [2] was 74%.
